Assay [1] deals with SARS-CoV-2 B.1.617.2 (Indian or Delta variant). Description: microbe, parasite or virus in culture. Format: cell-based. The following applies: Severe acute respiratory syndrome coronavirus 2, Vero C1008; VeroE6 cells in presence of P-gp inhibitor.
The test system of assay [2] is SARS-CoV-2 B.1.1.7 (UK or Alpha variant). Description: microbe, parasite or virus in culture. Format: cell-based. The following applies: Severe acute respiratory syndrome coronavirus 2, Vero C1008; VeroE6 cells in presence of P-gp inhibitor.

From article PMC8840742 (Molecules, 2022) come the findings set out here.

Each structure is given as a SMILES string.

Broadly, the EC50 is the midpoint of the concentration-response curve.

For the compound `c1ccc(CCN2CCC(Oc3ccccc3-c3nc(-c4ccncc4)no3)C2)cc1` (centres unmarked) [Compound 1, 5-(2-((1-Phenethylpyrrolidin-3-yl)oxy)phenyl)-3-(pyridin-4-yl)-1,2,4-oxadiazole], the results for the EC50 in assay [1] and in assay [2] were 4 ± 2 µM and 3 ± 1 µM, respectively.
